The record followed here is US7994160B2, “Pyridazine compounds as glycogen synthase kinase 3 inhibitors” (Abbott GmbH & Co. KG, priority 2005, dated 2011).

In experiment [1] the target is human Glycogen Synthase Kinase-3 beta (hGSK-3β) (Homo sapiens, UniProt P49841). In words: Biochemical hGSK-3Beta assay (33P-ATP phosphorylation of biotinylated peptide substrate). The settings on record: 10 μM ATP, 30 minutes at room temperature, read-out: GSK-3β IC50. As for the experimental part:
Methods—Biochemical hGSK-3Beta Assay
Compounds were tested for their ability to inhibit human Glycogen Synthase Kinase-3 beta (hGSK-3β) to phosphorylate biotin-[…](pS)EDEEE. Compounds were incubated with 0.5 μCi 33P-ATP, 10 μM ATP, 0.0125 U hGSK-3β (Upstate cell signaling solutions) and 1 μM substrate (biotin-[…](pS)EDEEE) in 50 mM HEPES, 10 mM MgCl2, […], 1 mM DTT, 0.0075% Triton, 2% DMSO (total volume 50 μL) for 30 minutes at room temperature. The incubation was stopped by addition of an equal volume of 100 mM EDTA, 4M NaCl. 80 μL of this mixture was added to streptavidin-coated Flashplates (PerkinElmer). Following a wash step, 33P incorporation was quantified on a MicroBeta microplate liquid scintillation counter (PerkinElmer). IC50's were determined by fitting a sigmoidal dose-response curve to the counts obtained at the different concentrations in GraphPad Prism.

For experiment [2], the system named is β-catenin-modulated gene transcription. In words: β-Catenin reporter-gene assay (LEF/TCF TOPFLASH/FOPFLASH luciferase). It is filed as cell-based. To be noted: human neuroblastoma cells, 24 h; symbols +/++/+++ not defined. As for the experimental part:
Methods—β-Catenin Reporter-Gene Assay
Compounds were tested for their ability to modulate β-catenin-modulated gene transcription in a LEF/TCF (T-cell factor) reporter gene assay. […] human neuroblastoma cells were transiently transfected with 80 ng/well TOPFLASH plasmid (Up-state cell signaling solutions) containing two sets of three copies of the TCF binding site upstream of the Thymidine Kinase minimal promoter and firefly Luciferase open reading frame or with 80 ng/well FOPFLASH plasmid (Upstate cell signaling solutions) containing three copies of a mutated TCF binding site upstream of the Thymidine Kinase minimal promoter and firefly Luciferase open reading frame. In addition all cells were transiently transfected with the 20 ng/well pRL-TK plasmid (Promega) containing the herpes simplex virus thymidine kinase promoter to provide low to moderate levels of Renilla Luciferase expression. Transfection medium was exchanged for serum-free medium containing the test substance and incubated for 24 h at 37 degreed C. The incubation was stopped and quantified using the Dual Glo Luciferase Assay (Promega) as indicated and quantified on a Pherastar reader (BMG).
Firefly Luciferase activity was normalised for Renilla Luciferase activity per well. Subsequently, the normalised TOPFLASH response was compared to the normalised FOPFLASH response, thus giving the LEF/TCF specific signal. […]

human Glycogen Synthase Kinase-3 beta (hGSK-3β), sequence (P49841 whole entry): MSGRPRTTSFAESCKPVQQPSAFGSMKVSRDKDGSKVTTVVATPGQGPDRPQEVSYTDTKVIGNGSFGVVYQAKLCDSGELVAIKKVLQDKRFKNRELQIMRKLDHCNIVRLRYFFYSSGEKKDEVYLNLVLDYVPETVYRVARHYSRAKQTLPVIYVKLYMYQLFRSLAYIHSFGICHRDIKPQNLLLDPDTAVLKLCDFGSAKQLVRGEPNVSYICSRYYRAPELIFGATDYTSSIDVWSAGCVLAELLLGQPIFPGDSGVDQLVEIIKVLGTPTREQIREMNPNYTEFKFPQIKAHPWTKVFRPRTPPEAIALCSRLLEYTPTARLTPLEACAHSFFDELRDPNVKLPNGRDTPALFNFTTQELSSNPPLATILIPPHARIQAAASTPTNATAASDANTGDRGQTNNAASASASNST

On to `C=Cc1cc2c(nn1)Nc1ccccc1NC2=O` [Example 10, 2-Vinyl-5,10-dihydro-3,4,5,10-tetraaza-dibenzo[a,d]cyclohepten-11-one], for which the IC50 in experiment [1] is 45 nM.
On to `O=C1Nc2ncccc2Nc2nnc(Cl)cc21` [Example 7, 8-Chloro-5,10-dihydro-1,5,6,7,11-pentaaza-dibenzo[a,d]cyclohepten-11-one], for which, in experiment [1], the IC50 turned out to be 101 nM.
`O=C1Nc2cc([N+](=O)[O-])ccc2Nc2nnc(Cl)cc21` [Example 4, 2-Chloro-8-nitro-5,10-dihydro-3,4,5,10-tetraaza-dibenzo[a,d]cyclohepten-11-one]: the IC50 in experiment [1] is 625 nM.
`NC(=O)c1cccc2c1Nc1ccccc1C(=O)N2` [Example 6, 11-Oxo-10,11-dihydro-5H-dibenzo[b,e][1,4]diazepine-6-carboxylic acid amide, reference compound]: the “Cellular Activity in GSK-3β TOPFLASH assay” value in experiment [2] was “INACTIVE”. In experiment [1], the IC50 was determined as 57000 nM.
